Measurements published in patent publication US6875761B2 (Eisai Co., Ltd., priority 1997, dated 2005).
Counter-ions that a name gives are not always drawn.

What was measured:
serotonin 1A receptor = target: T1, serotonin 1A receptor (Rattus norvegicus, UniProt P19327); assay: Binding test on [3H] 8-hydroxy-dipropylaminotetralin, hippocampus receptor fraction; parameters: species or system SD rats; details: rat hippocampus receptor fraction, 0.5 nM [3H] 8-OH-DPAT, room temperature 30 min; read-out: 5HT1
T1 construct: To the receptor fraction of the hippocampus were added a test compound and 0.5 nM of [^3H]; 8-hydroxy-dipropylaminotetralin; from tissue; host or cells: rat hippocampus membrane fraction
T1 sequence (P19327 1-422): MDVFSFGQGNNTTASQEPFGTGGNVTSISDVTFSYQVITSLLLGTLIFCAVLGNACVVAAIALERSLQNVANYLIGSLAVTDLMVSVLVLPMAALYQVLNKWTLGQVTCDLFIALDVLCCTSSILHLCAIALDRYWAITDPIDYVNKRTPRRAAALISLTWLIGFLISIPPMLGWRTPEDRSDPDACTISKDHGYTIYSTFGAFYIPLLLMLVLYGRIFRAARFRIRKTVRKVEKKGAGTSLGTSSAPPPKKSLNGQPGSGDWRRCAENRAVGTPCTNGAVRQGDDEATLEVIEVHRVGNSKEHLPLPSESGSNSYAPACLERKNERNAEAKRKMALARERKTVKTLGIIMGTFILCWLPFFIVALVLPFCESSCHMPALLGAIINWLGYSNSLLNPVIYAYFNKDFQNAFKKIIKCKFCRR

serotonin 2 receptor = target: T2, serotonin 2 receptor (Rattus norvegicus, UniProt P14842); assay: Binding test on [3H] ketanserin, cerebral cortex receptor fraction; parameters: species or system SD rats; details: 0.3 nM [3H] ketanserin, 37° C. 15 min, read-out: 5HT2
T2 construct: To the receptor fraction of the cerebral cortex were added a test compound and 0.3 nM of [^3H] ketanserin; from tissue; host or cells: rat cerebral cortex membrane fraction
T2 sequence (P14842 whole entry): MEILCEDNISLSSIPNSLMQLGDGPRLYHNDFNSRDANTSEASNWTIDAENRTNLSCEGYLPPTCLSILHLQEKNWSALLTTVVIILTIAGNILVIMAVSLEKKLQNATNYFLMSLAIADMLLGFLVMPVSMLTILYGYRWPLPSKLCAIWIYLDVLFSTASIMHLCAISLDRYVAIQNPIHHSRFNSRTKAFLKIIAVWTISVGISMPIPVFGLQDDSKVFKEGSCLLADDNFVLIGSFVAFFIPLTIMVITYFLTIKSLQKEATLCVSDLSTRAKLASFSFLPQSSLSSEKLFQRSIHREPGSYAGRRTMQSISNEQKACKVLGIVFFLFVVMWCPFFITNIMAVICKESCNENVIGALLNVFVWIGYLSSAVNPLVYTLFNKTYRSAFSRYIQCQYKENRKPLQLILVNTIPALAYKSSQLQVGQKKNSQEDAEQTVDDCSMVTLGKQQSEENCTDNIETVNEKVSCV

α1 adrenalin receptor = assay: Binding test on [3H] prazosin, cerebral cortex receptor fraction; parameters: species or system SD rats; details: rat cerebral cortex receptor fraction, about 0.2 nM [3H] prazosin, room temperature 60 min; read-out: α 1

| melting point | Structure (SMILES) | Ki (serotonin 1A receptor) [nM] | Ki (serotonin 2 receptor) [nM] | Ki (α1 adrenalin receptor) [nM] |
| --- | --- | --- | --- | --- |
| 251 to 253 °C | CCN1CCN(c2nc(-c3ccc(C4CCOCC4)s3)cc3ccccc23)CC1.Cl [Example 166, 3-[2-(tetrahydropyran-4-yl]thiophen-5-yl]-1-(4-ethylpiperazin-1-yl)isoquinoline hydrochloride] | 81.9 | 11.5 |  |
|  | CCN1CCN(c2nc(CCc3ccc(OCCO)cc3)cc3ccccc23)CC1 [Example 109, 1-(1-Ethylpiperazin-4-yl)-3-[4-(2-hydroxyethoxy)phenethyl]isoquinoline] |  |  | > 2000 |
|  | CCN1CCN(c2nc(C#Cc3ccc(OCCO)cc3)cc3ccccc23)CC1 [Example 183, 1-(1-Ethylpiperazin-4-Yl]-3-[4-(2-Hydroxyethoxy)Phenylethynyl]Isoquinoline Dihydrochloride] | 14.1 | 3.36 | 577 |
|  | CCN1CCN(c2nc(NCc3ccc(OC)cc3)cc3ccccc23)CC1 [Example 220, 1-(1-ethylpiperazin-4-yl)-3-(4-methoxybenzylamino)isoquinoline oxalate] | 0.53 | 2.01 | 3800 |
|  | CCN1CCN(c2nc(-c3ccc(CCCOC)nc3)cc3ccccc23)CC1 [Example 139, 1-(1-Ethylpiperazin-4-yl)-3-[2-(3-Methoxypropyl)Pyridin-5-yl]Isoquinoline Oxalate] | 2.7 | 5.1 | 374 |
|  | CCN1CCN(c2nc(C#CCc3ccccc3)cc3ccccc23)CC1 [Example 181, 1-(1-Ethylpiperazin-4-Yl)-3-(3-Phenyl-1-Propynyl)Isoquinoline Oxalate] | 17.9 | 6.7 | 920 |
|  | CCN1CCN(c2nc(-c3ccc(N4CCOCC4)cc3)cc3ccccc23)CC1 [Example 160, 3-[4-(4-morpholinyl)phenyl]-1-(4-ethylpiperazin-1-yl)isoquinoline dihydrochloride] | 22.2 | 0.7 | 536 |
|  | CCC(O)c1ccc(-c2cc3ccccc3c(N3CCN(CC)CC3)n2)cc1 (stereo not shown) [Example 19, 1-(4-ethylpiperazin-1-yl)-3-[4-(1-hydroxypropyl)phenyl]isoquinoline hydrochloride] | 6.9 | 1.6 | 373 |
|  | CCN1CCN(c2nc(-c3ccc(CCCO)c(F)c3)cc3ccccc23)CC1 [Example 29, hydrochloride] | 9.6 | 3.5 | 668 |
|  | CCN1CCN(c2nc(-c3ccccn3)cc3ccccc23)CC1 [Example 123, 1-(4-Ethylpiperazin-1-yl)-3-(2-Pyridyl)Isoquinoline Dihydrochloride] | 34 | 29.1 | 553 |
|  | CCN1CCN(c2nc(-c3ccc(CCC(C)O)cc3)cc3ccoc23)CC1 (stereo not shown) [Example 300, 7-(1-ethylpiperazin-4-yl)-5-[4-(3-hydroxybutyl)phenyl]furo[2,3-c]pyridine dihydrochloride] | 0.49 | 9.06 | > 2000 |
| 243 °C (dec.) | CCN1CCN(c2nc(-c3ccc(/C=N/O)cc3)cc3ccccc23)CC1.Cl [Example 61, (E)-1-(4-Ethylpiperazin-1-Yl)-3-(4-Hydroxyiminomethylphenyl)Isoquinoline Hydrochloride] | 11.7 | 8.2 |  |
| 158 to 160 °C | CCN1CCN(c2nc(-c3cc(OC)c(OC)cc3OC)cc3ccccc23)CC1.Cl [Example 16, 1-(4-ethylpiperazin-1-yl)-3-(2,4,5-trimethoxyphenyl)isoquinoline dihydrochloride] | 30 | 44 |  |
| 239 °C (dec.) | CCN1CCN(c2nc(-c3ccc(/C=N\O)cc3)cc3ccccc23)CC1.Cl [Example 60, (Z)-1-(4-Ethylpiperazin-1-Yl)-3-(4-Hydroxyiminomethylphenyl)Isoquinoline Hydrochloride] | 21.3 | 9.1 |  |
|  | CCN1CCN(c2nc(-c3ccc(OCCO)cc3)cc3sccc23)CC1 [Example 286, dihydrochloride] |  |  | 305 |
|  | CCCN1CCN(c2nc(-c3ccc(OCC(C)(C)O)cc3)cc3sccc23)CC1 [Example 289, 6-[4-(2-methyl-2-hydroxypropoxy)phenyl]-4-(4-propylpiperazin-1-yl)thieno[3,2-c]pyridine hydrochloride] |  |  | 1310 |
| 108 to 110 °C | CCN1CCN(c2nc(-c3ccc(CC(C)CO)cc3)cc3ccsc23)CC1 (stereo not shown) (as salt: hydrochloride) [Example 441, 7-(4-ethylpiperazin-1-yl)-5-[4-(3-hydroxy-2-methylpropyl)phenyl]thieno[2,3-c]pyridine dihydrochloride] |  |  |  |
| 268 to 270 °C (dec.) | CCN1CCN(c2nc(-c3ccc(S(=O)(=O)N4CCSCC4)cc3)cc3ccccc23)CC1 (as salt: hydrochloride) [Example 76, 3-[(4-Thiomorpholinyl)Sulfonylphenyl]-1-(4-Ethylpiperazin-1-Yl)Isoquinoline Hydrochloride] |  |  |  |
| 241 °C (dec.) | CCN1CCN(c2nc(-c3ccc(C#N)cc3)cc3ccccc23)CC1 (as salt: hydrochloride) [Example 62, 3-(4-Cyanophenyl)-1-(4-Ethylpiperazin-1-Yl)Isoquinoline Hydrochloride] |  |  |  |
| 190 to 192 °C (dec.) | CCCCc1ccc(-c2cc3ccccc3c(N3CCN(CC)CC3)n2)cc1 (as salt: hydrochloride) |  |  |  |
| 125 to 126.5 °C | CCN1CCN(c2nc(-c3ccc(OC)c(OC)c3)cc3ccccc23)CC1 (as salt: hydrochloride) [Example 14, 3-(3,4-dimethoxyphenyl)-1-(4-ethylpiperazin-1-yl)isoquinoline Dihydrochloride] |  |  |  |
| 242 to 245 °C | CCN1CCN(c2nc(-c3ccc(OC)cc3)cc3ncccc23)CC1 (as salt: hydrochloride) [Example 252, 5-(1-ethylpiperazin-4-yl)-7-(4-methoxyphenyl)-1,6-naphthyridine Dihydrochloride] |  |  |  |
|  | COc1ccc(-c2cc3ccccc3c(N3CCN(CCO)CC3)n2)cc1 [Example 242, 1-[4-(2-hydroxyethyl)piperazin-1-yl]-3-(4-methoxyphenyl)isoquinoline Dihydrochloride] |  |  | 1790 |
| 174 to 175 °C | CCN1CCN(c2nc(C(O)c3cccnc3)cc3ccccc23)CC1 (stereo not shown) (as salt: oxalate) [Example 413, 1-(4-ethylpiperazin-1-yl)-3-[(3-pyridyl)hydroxymethyl]isoquinoline] |  |  |  |
| 113 to 115 °C | CCN1CCN(c2nc(-c3ccc(OC)cc3)cc3ccsc23)CC1 (as salt: hydrochloride) [Example 459, 7-(4-ethylpiperazin-1-yl)-5-(4-methoxyphenyl)thieno[2,3-c]pyridine dihydrochloride] |  |  |  |
| 170 to 172 °C (dec.) | CCN1CCN(c2nc(-c3ccc(OC)cc3)cc3occc23)CC1 (as salt: oxalate) |  |  |  |
| 230 °C (dec.) | CCN1CCN(c2nc(C#Cc3ccc(OC)cc3)cc3ccccc23)CC1 (as salt: hydrochloride) [Example 178, 1-(1-Ethylpiperazin-4-Yl)-3-(4-Methoxyphenyl)Ethynylisoquinoline Dihydrochloride] |  |  |  |

| Structure (SMILES) | melting point | Ki (serotonin 1A receptor) [nM] | Ki (serotonin 2 receptor) [nM] | Ki (α1 adrenalin receptor) [nM] |
| --- | --- | --- | --- | --- |
| CCN1CCN(c2nc(-c3ccc(CCCO)c(C(N)=O)c3)cc3ccccc23)CC1 [Example 31, 3-[3-carboxamide-4-(3-hydroxypropyl)phenyl]-1-(4-ethylpiperazin-1-yl)isoquinoline] | 213 to 218 °C (dec.) | 10.7 | 30.3 |  |
| CCN1CCN(c2nc(-c3ccc(C(C)O)cc3)cc3sccc23)CC1 (stereo not shown) (as salt: oxalate) [Example 281, 4-(4-ethylpiperazin-1-yl)-6-[4-(1-hydroxyethyl)phenyl]thieno[3,2-c]pyridine oxalate] | 134 to 135 °C |  |  |  |
| CCN1CCN(c2nc(-c3ccc(COCCO)cc3)cc3ccccc23)CC1 (as salt: hydrochloride) [Example 44, 3-[4-(2-Hydroxyethoxylmethylphenyl]-1-(4-ethylpiperazin-1-Yl)Isoquinoline Hydrochloride] | 129 to 131 °C |  |  |  |
| CCN1CCN(c2nc(-c3ccc(OCCO)c(C#N)c3)cc3ccccc23)CC1 (as salt: hydrochloride) [Example 417, 1-(4-ethylpiperazin-1-yl)-3-[3-cyano-4-(2-hydroxyethoxy)phenyl]isoquinoline] | 162 to 164 °C |  |  |  |
| CCCC(=O)Nc1ncc(-c2cc3ccccc3c(N3CCN(CC)CC3)n2)cn1 (as salt: hydrochloride) [Example 174, 3-(2-Propylcarbonylaminopyrimidin-5-Yl)-1-(4-Ethylpiperazin-1-Yl)Isoquinoline Hydrochlroide] | 216 to 219 °C |  |  |  |
| CCN1CCN(c2nc(-c3cccc(CCCO)c3)cc3ccccc23)CC1 (as salt: hydrochloride) [Example 418, 1-(4-ethylpiperazin-1-yl)-3-[3-(3-hydroxypropyl)phenyl]isoquinoline] | 101 to 103 °C |  |  |  |
